Patent US10961238B2, “Modulators of hedgehog (Hh) signaling pathway” (E-THERAPEUTICS PLC, priority 2016, dated 2021)

system: C3H10T1/2 cells; experiment: C3H assay: differentiation of C3H10T1/2 cells by mSHH, measurement of alkaline phosphatase; type: cell-based, mouse; conditions: Mus musculus, C3H 10T1/2, 72 h, read-out: IC50 Ranges

With O=C(OCCC1CCOCC1)N1CC(S(=O)(=O)N2CCC(c3c[nH]c4ncccc34)CC2)C1 [Compound 60, 2-Tetrahydropyran-4-ylethyl 3-[[4-(1H-pyrrolo[2,3-b]pyridin-3-yl)-1-piperidyl]sulfonyl]azetidine-1-carboxylate] the IC50 was 10 to 100 nM.

same assay, conditions: Mus musculus, C3H 10T1/2; C3H10T1/2 cells stimulated with mSHH for 72 hours; alkaline phosphatase activity; read-out: IC50 Ranges

O=C(OC1CCCCC1)N1CC(S(=O)(=O)N2CCC(c3c[nH]c4nccnc34)CC2)C1 [Compound 44, cyclohexyl 3-[4-(5H-pyrrolo[2,3-b]pyrazin-7-yl)piperidin-1-yl]sulfonylaze-tidine-1-carboxylate] and O=C(OCCN1CCCCC1)N1CC(S(=O)(=O)N2CCC(c3c[nH]c4ncccc34)CC2)C1 [Compound 59, 2-piperidin-1-ylethyl 3-[4-(1H-pyrrolo [2,3-b]pyridin-3-yl)piperidin-1-yl]sulfonylaze-tidine-1-carboxylate] fall in the same range of IC50: 10 to 100 nM for the first, 10 to 100 nM for the second.

First: CC1CC(c2c[nH]c3ncccc23)CCN1S(=O)(=O)C1CN(C(=O)OC(C)(C)C)C1 (stereo not shown) [Compound 46, tert-butyl 3-[2-methyl-4-(1H-pyrrolo [2,3-b]pyridin-3-yl)piperidin-1-yl]sulfonylaze-tidine-1-carboxylate]
Second: CN(C)CC(C)(C)OC(=O)N1CC(S(=O)(=O)N2CCC(c3c[nH]c4ncccc34)CC2)C1 [Compound 50, [1-(dimethylamino)-2-methylpropan-2-yl] 3-[4-(1H-pyrrolo[2,3-b]pyridin-3-yl)piperidin-1-yl]sulfonylaze-tidine-1-carboxylate]
The IC50 of the first is higher: 1000 to 10000 nM for the first, 10 to 100 nM for the second. The second is the more potent here.

First: COc1ccc(C2CCN(S(=O)(=O)C3CN(C(=O)OC(C)(C)C)C3)CC2)nc1 [Compound 47, tert-butyl 3-[4-(5-methoxypyridin-2-yl)piperidin-1-yl]sulfonylaze-tidine-1-carboxylate]
Second: COc1ccc(C2CCN(S(=O)(=O)C3CN(C(=O)OC(C)(C)C)C3)CC2)cn1 [Compound 48, tert-butyl 3-[4-(6-methoxypyridin-3-yl)piperidin-1-yl]sulfonylaze-tidine-1-carboxylate]
The IC50 of the first is higher: 1000 to 10000 nM for the first, 100 to 1000 nM for the second.

Compared with CC(C)(C)OC(=O)N1CC(S(=O)(=O)N2CCC(c3c[nH]c4cccnc34)CC2)C1 [Compound 49, tert-butyl 3-[4-(1H-pyrrolo[3,2-b]pyridin-3-yl)piperidin-1-yl]sulfonylaze-tidine-1-carboxylate], CC(C)(C)C(=O)N1CC(S(=O)(=O)N2CCC(c3c[nH]c4ncccc34)CC2)C1 [Compound 73, 2,2-dimethyl-1-[3-[4-(1H-pyrrolo[2,3-b]pyridin-3-yl)piperidin-1-yl]sulfonylaze-tidin-1-yl]propan-1-one] is higher in IC50: 10 to 100 nM for the first, 100 to 1000 nM for the second. The first is the more potent here.

First: CN1CCC(COC(=O)N2CC(S(=O)(=O)N3CCC(c4c[nH]c5ncccc45)CC3)C2)CC1 [Compound 51, (1-methylpiperidin-4-yl)methyl 3-[4-(1H-pyrrolo [2,3-b]pyridin-3-yl)piperidin-1-yl]sulfonylaze-tidine-1-carboxylate]
Second: CN1CCN(CCCOC(=O)N2CC(S(=O)(=O)N3CCC(c4c[nH]c5ncccc45)CC3)C2)CC1 [Compound 53, 3-(4-methylpiperazin-1-yl)propyl 3-[4-(1H-pyrrolo [2,3-b]pyridin-3-yl)piperidin-1-yl]sulfonylaze-tidine-1-carboxylate]
The IC50 of the first is lower: 100 to 1000 nM for the first, 1000 to 10000 nM for the second.

CCN(CC)CCOC(=O)N1CC(S(=O)(=O)N2CCC(c3c[nH]c4ncccc34)CC2)C1 [Compound 52, 2-(diethylamino) ethyl 3-[4-(1H-pyrrolo [2,3-b]pyridin-3-yl)piperidin-1-yl]sulfonylaze-tidine-1-carboxylate] and COCCOC(=O)N1CC(S(=O)(=O)N2CCC(c3c[nH]c4ncccc34)CC2)C1 [Compound 65, 2-methoxyethyl 3-[4-(1H-pyrrolo[2,3-b]pyridin-3-yl)piperidin-1-yl]sulfonylaze-tidine-1-carboxylate] fall in the same range of IC50: 100 to 1000 nM for the first, 100 to 1000 nM for the second.

Compared with O=C(OCCN1CCOCC1)N1CC(S(=O)(=O)N2CCC(c3c[nH]c4ncccc34)CC2)C1 [Compound 54, 2-morpholin-4-ylethyl 3-[4-(1H-pyrrolo [2,3-b]pyridin-3-yl)piperidin-1-yl]sulfonylaze-tidine-1-carboxylate], O=C(OCCCN1CCCCC1)N1CC(S(=O)(=O)N2CCC(c3c[nH]c4ncccc34)CC2)C1 [Compound 58, 3-piperidin-1-ylpropyl 3-[4-(1H-pyrrolo[2,3-b]pyridin-3-yl)piperidin-1-yl]sulfonylaze-tidine-1-carboxylate] is higher in IC50: 10 to 100 nM for the first, 100 to 1000 nM for the second. The first is the more potent here.

Cc1noc(C)c1CNC(=O)N1CC(S(=O)(=O)N2CCC(c3c[nH]c4ncccc34)CC2)C1 [Compound 55, N-[(3,5-dimethyl-1,2-oxazol-4-yl)methyl]-3-[4-(1H-pyrrolo[2,3-b]pyridin-3-yl)piperidin-1-yl]sulfonylaze-tidine-1-carboxamide] and Cc1noc(C)c1CC(=O)N1CC(S(=O)(=O)N2CCC(c3c[nH]c4ncccc34)CC2)C1 [Compound 63, 2-(3,5-dimethyl-1,2-oxazol-4-yl)-1-[3-[4-(1H-pyrrolo[2,3-b]pyridin-3-yl)piperidin-1-yl]sulfonylaze-tidin-1-yl]ethanone] fall in the same range of IC50: 10 to 100 nM for the first, 10 to 100 nM for the second.

First: Cc1noc(C)c1CCN1CC(S(=O)(=O)N2CCC(c3c[nH]c4ncccc34)CC2)C1 [Compound 56, 3,5-Dimethyl-4-[2-[3-[[4-(1H-pyrrolo[2,3-b]pyridin-3-yl)-1-piperidyl]sulfonyl]azetidin-1-yl]ethyl]isoxazole]
Second: Cc1noc(C)c1CN1CC(S(=O)(=O)N2CCC(c3c[nH]c4ncccc34)CC2)C1 [Compound 61, 3,5-dimethyl-4-[[3-[4-(1H-pyrrolo [2,3-b]pyridin-3-yl)piperidin-1-yl]sulfonylaze-tidin-1-yl]methyl]-1,2-oxazole]
The IC50 of the first is lower: 10 to 100 nM for the first, 1000 to 10000 nM for the second.

First: O=C(NC1(C(F)(F)F)CC1)N1CC(S(=O)(=O)N2CCC(c3c[nH]c4ncccc34)CC2)C1 [Compound 57, 3-[[4-(1H-Pyrrolo[2,3-b]pyridin-3-yl)-1-piperidyl]sulfonyl]-N-[1-(trifluoromethyl)cyclopropyl]azetidine-1-carboxamide]
Second: O=C(NCc1cncs1)N1CC(S(=O)(=O)N2CCC(c3c[nH]c4ncccc34)CC2)C1 [Compound 80, 3-[4-(1H-pyrrolo[2,3-b]pyridin-3-yl)piperidin-1-yl]sulfonyl-N-(1,3-thiazol-5-ylmethyl)azetidine-1-carboxamide]
The IC50 of the first is lower: under 10 nM for the first, 100 to 1000 nM for the second. The first is the more potent here.

Cc1noc(C)c1COC(=O)N1CC(S(=O)(=O)N2CCC(c3c[nH]c4ncccc34)CC2)C1 [Compound 62, (3,5-Dimethylisoxazol-4-yl)methyl 3-[[4-(1H-pyrrolo[2,3-b]pyridin-3-yl)-1-piperidyl]sulfonyl]azetidine-1-carboxylate] and CC(C)(C)COC(=O)N1CC(S(=O)(=O)N2CCC(c3c[nH]c4ncccc34)CC2)C1 [Compound 66, 2,2-dimethylpropyl 3-[4-(1H-pyrrolo[2,3-b]pyridin-3-yl)piperidin-1-yl]sulfonylaze-tidine-1-carboxylate] fall in the same range of IC50: 10 to 100 nM for the first, 10 to 100 nM for the second.

Compared with CC1(C)CCCC(C)(C)N1C(=O)N1CC(S(=O)(=O)N2CCC(c3c[nH]c4ncccc34)CC2)C1 [Compound 64, [3-[4-(1H-pyrrolo[2,3-b]pyridin-3-yl)piperidin-1-yl]sulfonylaze-tidin-1-yl]-(2,2,6,6-tetramethylpiperidin-1-yl)methanone], O=C(N1CC(S(=O)(=O)N2CCC(c3c[nH]c4ncccc34)CC2)C1)n1ccnc1 [Compound 79, imidazol-1-yl-[3-[4-(1H-pyrrolo[2,3-b]pyridin-3-yl)piperidin-1-yl]sulfonylaze-tidin-1-yl]methanone] is higher in IC50: 10 to 100 nM for the first, 1000 to 10000 nM for the second. The first is the more potent here.

O=S(=O)(C1CN(Cc2cccs2)C1)N1CCC(c2c[nH]c3ncccc23)CC1 [Compound 68, 3-[1-[1-(thiophen-2-ylmethyl)azetidin-3-yl]sulfonylpiper-idin-4-yl]-1H-pyrrolo[2,3-b]pyridine] and O=S(=O)(C1CN(Cc2ccco2)C1)N1CCC(c2c[nH]c3ncccc23)CC1 [Compound 70, 3-[1-[1-(furan-2-ylmethyl)azetidin-3-yl]sulfonylpiper-idin-4-yl]-1H-pyrrolo[2,3-b]pyridine] fall in the same range of IC50: 100 to 1000 nM for the first, 100 to 1000 nM for the second.

Compared with O=S(=O)(C1CN(Cc2ccc[nH]2)C1)N1CCC(c2c[nH]c3ncccc23)CC1 [Compound 69, 3-[1-[1-(1H-pyrrol-2-ylmethyl)azetidin-3-yl]sulfonylpiper-idin-4-yl]-1H-pyrrolo[2,3-b]pyridine], O=S(=O)(C1CN(c2ccncc2)C1)N1CCC(c2c[nH]c3ncccc23)CC1 [Compound 71, 3-[1-(1-pyridin-4-ylazetidin-3-yl)-sulfonylpiper-idin-4-yl]-1H-pyrrolo[2,3-b]pyridine] is higher in IC50: 100 to 1000 nM for the first, 1000 to 10000 nM for the second.

O=C(c1ccncc1)N1CC(S(=O)(=O)N2CCC(c3c[nH]c4ncccc34)CC2)C1 [Compound 72, pyridin-4-yl-[3-[4-(1H-pyrrolo[2,3-b]pyridin-3-yl)piperidin-1-yl]sulfonylaze-tidin-1-yl]methanone] and CC(C)(C)c1ccc(C(=O)N2CC(S(=O)(=O)N3CCC(c4c[nH]c5ncccc45)CC3)C2)cc1 [Compound 74, (4-tert-butylphenyl)-[3-[4-(1H-pyrrolo[2,3-b]pyridin-3-yl)piperidin-1-yl]sulfonylaze-tidin-1-yl]methanone] fall in the same range of IC50: 1000 to 10000 nM for the first, 1000 to 10000 nM for the second.

O=C(OCc1ccccc1)N1CC(S(=O)(=O)N2CCC(c3c[nH]c4ncccc34)CC2)C1 [Compound 76, benzyl 3-[4-(1H-pyrrolo[2,3-b]pyridin-3-yl)piperidin-1-yl]sulfonylaze-tidine-1-carboxylate] and O=C(Oc1ccc(F)cc1)N1CC(S(=O)(=O)N2CCC(c3c[nH]c4ncccc34)CC2)C1 [Compound 77, (4-fluorophenyl) 3-[4-(1H-pyrrolo[2,3-b]pyridin-3-yl)piperidin-1-yl]sulfonylaze-tidine-1-carboxylate] fall in the same range of IC50: 10 to 100 nM for the first, 10 to 100 nM for the second.

O=C(NCc1cocn1)N1CC(S(=O)(=O)N2CCC(c3c[nH]c4ncccc34)CC2)C1 [Compound 78, N-(1,3-oxazol-4-ylmethyl)-3-[4-(1H-pyrrolo[2,3-b]pyridin-3-yl)piperidin-1-yl]sulfonylaze-tidine-1-carboxamide] gave an IC50 of 100 to 1000 nM.
